The values that follow come from US4701459A, “7-amino-1,3-dihydro-2H-imidazo[4,5-b]quinolin 2-ones and method for inhibiting phosphodiesterase and blood platelet aggregation” (Bristol-Myers Company, priority 1986, dated 1987).

The test system of experiment [1] is platelet rich plasma (ADP and collagen-induced platelet aggregation). Nature of the experiment: In Vitro Inhibition of Platelet Aggregation (aggregometer method of Born, ADP- or collagen-induced). The format is cell-based. The conditions noted are these: Oryctolagus cuniculus, rabbit PRP. An excerpt:
In Vitro Inhibition of Platelet Aggregation
The aggregometer method of Born (1), as modified by Mustard, et al. (2) was used to assess the in vitro activity of the various compounds as to inhibition of adenosine diphosphate (ADP) and collagen-induced platelet aggregation. Platelet rich plasma (PRP) was separated by centrifugation from citrated (3.8 percent) rabbit blood. […] The various compounds tested were dissovled in dimethylsulfoxide (DMSO) so that 5 mcl added to the platelet rich plasma would yield the desired test concentration. Vehicle control trials were done and compared with aggregation induced in platelet rich plasma containing various concentrations of the test compounds. Dose response curves were obtained and Effective Concentration (EC50) values calculated.

For experiment [2], the system named is cAMP phosphodiesterase (human platelets). Nature of the experiment: Inhibition of Cyclic AMP Phosphodiesterase. The format is biochemical. The following applies: PDE from human platelets. How it is done: Inhibition of Cyclic AMP Phosphodiesterase
This assay is carried out essentially as described by Thompson, et al., Methods in Enzymology, 38, 205-212 (1974). Briefly, tritium labeled cyclic adenosine monophosphate (cAMP) is incubated with a phosphodiesterase (PDE) enzynme obtained from human platelets which converts a portion of the cAMP to 5'AMP in culture tubes. This reaction is terminated by submerging the tubes in a boiling water bath after which they are placed on ice and an aliquot of snake venom is added to each tube. This, during a second incubation, converts the 5'AMP to adenosine. Ion exchange resin is added to bind the remaining cyclic AMP. The tubes are centrifuged to sediment the resin and a portion of the clear supernatent (which contains radioactive adenosine) is counted in a liquid scintillation counter. The cAMP phosphodiesterase inhibition activity of a test agent is determined by pre-incubating the PDE enzyme preparation with the test agent.

The test system of experiment [3] is platelet rich plasma (induced aggregation). Nature of the experiment: Inhibition of Platelet Aggregation Following Oral Administration (Ex vivo method). The format is in vivo. The conditions noted are these: Rattus norvegicus, rats, oral (gavage), 2 hours after dosing, vs. ADP. The protocol:
Inhibition of Platelet Aggregation Following Oral Administration
This test is sometimes referred to in the art as an Ex vivo method and was initially described by Fleming, et al., Arch. Int. Pharmacodyn. Ther., 199, 164 (1972). Briefly, the assay is essentially carried out as follows.
Aggregometry is performed in vitro as previously described on platelet rich plasma samples obtained from rats dosed with either test compounds or the vehicle. In all cases, activity is determined 2 hours after the drug is administered orally at various doses by gavage as a suspension in […] plus a few drops of Tween 20.

A further experiment deals with ferrets. Nature of the experiment: Ferret In Vivo Inotropic Activity. The following applies: anesthetized ferrets, monitored 60 minutes; for Maximum Percentage Change, Right Ventricular Contractile Force: percent change from predose control. How it is done:
In Vivo Inotropic Activity This test is carried out in ferrets as follows. Fasted anesthetized ferrets are instrumented to study hemodynamic parameters as well as right ventricular contractile force (RVCF) using a Walton-Brodie open strain guage arch. Drugs are administered intraduodenally as solutions in DMSO (1 mL or less) and effects on myocardial contractile force and other parameters are monitored for 60 minutes after dosing. Changes in contractile force in response to drug treatment are expressed in terms of percent change from predose control.

The mark [4] stands for this setting: vs. ADP (0.5 mcg/ml), read-out: Platelet Inhibition In Vitro - Rabbit PRP EC50 vs. ADP.
The mark [5] stands for this setting: vs. collagen, read-out: Platelet Inhibition In Vitro - Rabbit PRP EC50 vs. collagen.

In brackets after ≈: the same amount, converted by molar mass. Where two headings read alike, the source gives them in different places.

As to `CC(=O)Nc1ccc2nc3[nH]c(=O)[nH]c3cc2c1` [Example 4, N-(2,3-Dihydro-2-oxo-1H-imidazo[4,5-b]quinolin-7-yl)acetamide], the EC50 in experiment [1] (setting [4]) is 2 µg/mL (≈ 8.26 µM); in experiment [1] (setting [5]), 0.8 µg/mL (≈ 3.3 µM). Moreover, in experiment [2], the midpoint of inhibition, the IC50, lay at 0.7 µM.

On to `Nc1ccc2nc3[nH]c(=O)[nH]c3cc2c1` [Example 5, 7-Amino-1,3-dihydro-2H-imidazo[4,5-b]quinolin-2-one], for which the half-maximal effective concentration (EC50) in experiment [1] (setting [5]) came out at 0.4 µg/mL (≈ 2 µM).

`O=C(Nc1ccc2nc3[nH]c(=O)[nH]c3cc2c1)c1ccccc1` [Example 6, N-(2,3-Dihydro-2-oxo-1H-imidazo[4,5-b]quinolin-7-yl)benzamide] displayed an ED50 in experiment [3] of 5.6 mg/kg. Besides, half-maximal inhibition in experiment [2] (IC50) required 0.2 µM. Also, in the experiment with ferrets (3 mg/kg intraduodenal), the “Maximum Percentage Change, Blood Pressure” value is on record as -8 ± 6% and the “Maximum Percentage Change, Right Ventricular Contractile Force” value is 9 ± 4%.

For the molecule `O=c1[nH]c2cc3cc(N4CCCCC4)ccc3nc2[nH]1` [Example 7, 1,3-Dihydro-7-(1-piperidinyl)-2H-imidazo[4,5-b]quinolin-2-one], the concentration for a half-maximal effect (EC50) in experiment [1] (setting [4]) is 1 µg/mL (≈ 3.73 µM). Besides, the 50% effect level in experiment [3] (ED50) was put at a dose of 20 mg/kg. For the same molecule, in the experiment with ferrets (0.3 mg/kg intraduodenal), the “Maximum Percentage Change, Blood Pressure” value is listed as -21 ± 5% and the “Maximum Percentage Change, Right Ventricular Contractile Force” value was found to be 14 ± 12%. For the same molecule, in the experiment with ferrets (3 mg/kg intraduodenal), the “Maximum Percentage Change, Blood Pressure” value is listed as -39 ± 3% and the “Maximum Percentage Change, Right Ventricular Contractile Force” value came out at 22 ± 8%.

With `O=c1[nH]c2cc3cc(N4CCCC4)ccc3nc2[nH]1` [Example 8, 1,3-Dihydro-7-(1-pyrrolidinyl)-2H-imidazo-[4,5-b]quinolin-2-one], in experiment [1] (setting [5]), the concentration giving a half-maximal response (EC50) turned out to be 0.4 µg/mL (≈ 1.57 µM).

Take `CCN(CC)c1ccc2nc3[nH]c(=O)[nH]c3cc2c1` [Example 9, 7-(Diethylamino)-1,3-dihydro-2H-imidazo[4,5-b]quinolin-2-one]: the half-maximal effective concentration (EC50) in experiment [1] (setting [4]) is 0.3 µg/mL (≈ 1.17 µM).

Consider `O=c1[nH]c2cc3cc(N4CCOCC4)ccc3nc2[nH]1` [Example 10, 1,3-Dihydro-7-(4-morpholinyl)-2H-imidazo[4,5-b]quinolin-2-one], for which the concentration giving a half-maximal response (EC50) in experiment [1] (setting [4]) turned out to be 0.03 µg/mL (≈ 0.111 µM); in experiment [1] (setting [5]), 0.02 µg/mL (≈ 0.074 µM). The molecule further showed a 50% inhibitory concentration (IC50) in experiment [2] of 0.02 µM.

Regarding `COC(=O)C1CCN(c2ccc3nc4[nH]c(=O)[nH]c4cc3c2)CC1` [Example 11, Methyl 1-(2,3-Dihydro-2-oxo-1H-imidazo[4,5-b]quinolin-7-yl)-4-piperidinecarboxylate], the EC50 in experiment [1] (setting [4]) came out at 0.04 µg/mL (≈ 0.123 µM); in experiment [1] (setting [5]), 0.012 µg/mL (≈ 0.0368 µM).

For the molecule `O=C(O)C1CCN(c2ccc3nc4[nH]c(=O)[nH]c4cc3c2)CC1` [Example 12, 1-(2,3-Dihydro-2-oxo-1H-imidazo[4,5-b]quinolin-7-yl)-4-piperidinecarboxylicAcid], the figures for the 50% effective concentration (EC50) in experiment [1] (setting [4]) and in experiment [1] (setting [5]) were 3.5 µg/mL (≈ 11.2 µM) and 3 µg/mL (≈ 9.61 µM), respectively. In experiment [2], this molecule showed an IC50 of 0.02 µM.

`CCOC(=O)N1CCN(c2ccc3nc4[nH]c(=O)[nH]c4cc3c2)CC1` [Example 13, Ethyl 4-(2,3-Dihydro-2-oxo-1H-imidazo[4,5-b]quinolin-7-yl)-1-piperazinecarboxylate]: the EC50 in experiment [1] (setting [5]) was found to be 0.17 µg/mL (≈ 0.498 µM). Also, the IC50 in experiment [2] worked out at 0.7 µM.

Turning to `O=C(c1ccccc1)N1CCN(c2ccc3nc4[nH]c(=O)[nH]c4cc3c2)CC1` [Example 14, 1-Benzoyl-4-(2,3-dihydro-2-oxo-1H-imidazo[4,5-b]quinolin-7-yl)piperazine], the half-maximal effective concentration (EC50) in experiment [1] (setting [4]) came to 0.125 µg/mL (≈ 0.335 µM). In experiment [2], this molecule registered an IC50 of 0.6 µM.

Turning to `COc1ccc(C(=O)N2CCN(c3ccc4nc5[nH]c(=O)[nH]c5cc4c3)CC2)cc1OC` [Example 15, 1-(2,3-Dihydro-2-oxo-1H-imidazo[4,5-b]quinolin-7-yl)-4-(3,4-dimethoxybenzoyl)piperazine], the EC50 in experiment [1] (setting [4]) was 3 µg/mL (≈ 6.92 µM); in experiment [1] (setting [5]), 2 µg/mL (≈ 4.61 µM).

For the molecule `O=c1[nH]c2cc3cc(N4CCN(c5ccccc5)CC4)ccc3nc2[nH]1` [Example 16, 1,3-Dihydro-7-(4-phenyl-1-piperazinyl)-2H-imidazo[4,5-b]quinolin-2-one], the concentration for a half-maximal effect (EC50) in experiment [1] (setting [4]) worked out at 0.12 µg/mL (≈ 0.347 µM); in experiment [1] (setting [5]) it was 0.025 µg/mL (≈ 0.0724 µM).

For `CN(C(=O)C1CCN(c2ccc3nc4[nH]c(=O)[nH]c4cc3c2)CC1)C1CCCCC1` [Example 17, N-Cyclohexyl-1-(2,3-dihydro-2-oxo-1H-imidazo[4,5-b]quinolin-7-yl)-N-methyl-4-piperidinecarboxamide], the EC50 was determined as 1.5 µg/mL (≈ 3.68 µM) in experiment [1] (setting [4]) and 0.75 µg/mL (≈ 1.84 µM) in experiment [1] (setting [5]).

Take `OCCN(CCO)c1nc(N2CCCCC2)c2nc(N(CCO)CCO)nc(N3CCCCC3)c2n1` [dipyridamole, reference compound]: the results for the half-maximal effective concentration (EC50) in experiment [1] (setting [4]) and in experiment [1] (setting [5]) were […] and […], respectively. In experiment [3], the ED50 was over 100 mg/kg.

As for `Cc1[nH]c(=O)c(C#N)cc1-c1ccncc1` [milrinone, reference compound], the “Maximum Percentage Change, Right Ventricular Contractile Force” value in the experiment on ferrets (3 mg/kg intraduodenal) is on record as 52%.
